Test results taken from patent publication US8129592B2, “Plant isoflavonoid hydroxylases and methods of use thereof” (The Samuel Roberts Noble Foundation, Inc., priority 2003, dated 2012).
Marks after values point to notes of the source that are not given here.

Key:
[1] = biological target: T1, I2′H (MtCYP81E7) (Medicago truncatula, UniProt Q6WNR0); assay: Hydroxylase assay with yeast microsomes expressing recombinant MtCYP81E7 (I2′H); format: biochemical; conditions: for Substrate specificity of I2′H (MtCYP81E7), relative activity: 100% = biochanin A, a = sum of putative 2′ and/or 3′-hydroxylated products, ND = activities not detectable
T1 construct: The open reading frame of MtCYP81E7 was amplified with forward primer; made in house; host or cells: Saccharomyces cerevisiae WAT11, vector YeDP60; microsomal fraction
T1 sequence (Q6WNR0 1-498): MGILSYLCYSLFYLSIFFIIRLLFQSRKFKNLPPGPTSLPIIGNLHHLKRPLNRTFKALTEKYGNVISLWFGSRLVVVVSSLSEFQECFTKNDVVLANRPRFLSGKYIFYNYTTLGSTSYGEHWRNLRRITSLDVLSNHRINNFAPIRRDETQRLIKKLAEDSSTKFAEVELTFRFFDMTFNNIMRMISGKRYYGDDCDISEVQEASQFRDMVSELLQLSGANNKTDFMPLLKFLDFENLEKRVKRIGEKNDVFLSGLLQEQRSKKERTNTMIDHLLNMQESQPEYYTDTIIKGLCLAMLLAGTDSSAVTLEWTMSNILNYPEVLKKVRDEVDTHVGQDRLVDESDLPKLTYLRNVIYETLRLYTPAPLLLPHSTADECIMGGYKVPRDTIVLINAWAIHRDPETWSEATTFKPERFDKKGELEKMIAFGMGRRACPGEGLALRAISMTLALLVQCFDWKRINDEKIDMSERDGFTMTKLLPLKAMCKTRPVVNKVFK
Experimental: (§1) PCR products were digested with BamHI and KpnI and ligated into the yeast expression vector YeDP60 following BamHI/KpnI digestion. MtCYP81E8 was directly excised from the original clone in pBSK(+) by BamHI and KpnI and inserted into YeDP60. All constructs were sequenced to ensure that there were no PCR-introduced errors. […] After induction with 20% galactose for ˜18 h, yeast cells was harvested, weighed, and immediately processed for microsomal fractionation.
(§2) After incubation at ˜80 rpm for 30 to 40 min, spheroplasts were centrifuged down for 5 min, washed twice with Zymolyase buffer B, and then twice with phosphate buffer A (0.1 M potassium phosphate pH 8.0, 1 M sorbitol, 14 mM 2-mercaptoethanol). The spheroplasts were re-suspended in a minimum vol of phosphate buffer B (0.1 M potassium phosphate pH 8.0, 0.4 M sucrose, 14 mM β-mercaptoethanol, 1 mM PMSF and 1× […] (Roche Diagnostics GmbH, Mannheim, German), and 1 vol of glass beads (diameter at 0.45/0.50 mm) was added. Samples were vigorously vortexed at 4° C., with the quality of cell disruption checked under the microscope. The supernatant was then removed and the beads washed four times with phosphate buffer B. Supernatants were pooled and centrifuged at 12,000 g for 10 min; the resulting supernatant was then ultracentrifuged at 140,000 g for 90 min. The supernatant was discarded and the pellet washed briefly with phosphate buffer C (0.1 M potassium phosphate, pH 8.0, 0.4 M sucrose, 0.5 mM glutathione), and re-suspended in the same buffer plus 5% glycerol at about 12 mg total protein/ml. Protein was quantified using a Bio-Rad protein assay kit (Bio-Rad, Hercules, Calif.).
(§3) Hydroxylase assays were performed in phosphate buffer C in a total volume of 150 μl containing 2 mM NADPH, 40 μM isoflavone substrate and 40˜70 pmol P450 protein. […] The extracts were combined, evaporated under N2, re-suspended in 60 μl of methanol, and analyzed by HPLC or LC-MS. All assays to determine enzyme specificity were carried out in duplicate. For kinetic studies, the isoflavone concentration was varied at a fixed concentration of NADPH (2 mM), and kinetic constants calculated from initial rate data using Lineweaver-Burke double reciprocal plots. All kinetic analyses were carried out in triplicate.
(§4) Reaction products from enzyme assays (30 μl) were analyzed by HPLC.
(§5) Product identification was firstly based on comparisons of chromatographic behavior and UV spectra with authentic standards. Identifications were then confirmed by HPLC-MS, using a HP 1100 liquid chromatograph coupled to a Bruker Esquire Ion-Trap mass spectrometer equipped with an electrospray source. HPLC separation was achieved using a J. T. Baker Bakerbond reverse-phase column (C18, 5 μm, 4.6 mm×250 mm, J. T. Baker, Philipsberg, N.J.). Samples were eluted with the gradient described above but with 0.1% aqueous acetic acid replacing the 1% phosphoric acid. Ion charge control was set at 30,000 with a max acquire time of 100 ms. Mass spectra were recorded over a range of 50-2200 m/z.

[2] = biological target: T2, I3′H (MtCYP81E9) (Medicago truncatula, UniProt Q6WNQ9); assay: Hydroxylase assay with yeast microsomes expressing recombinant MtCYP81E9 (I3′H); format: biochemical; conditions: for Substrate specificity of I3′H (MtCYP81E9), relative activity: 100% = biochanin A, a = sum of putative 2′ and/or 3′-hydroxylated products, b = sum of all the products, ND = activities not detectable
T2 construct: made in house; host or cells: Saccharomyces cerevisiae WAT11, vector YeDP60; microsomal fraction
T2 sequence (Q6WNQ9 with tags, fused parts or gaps limits assumed): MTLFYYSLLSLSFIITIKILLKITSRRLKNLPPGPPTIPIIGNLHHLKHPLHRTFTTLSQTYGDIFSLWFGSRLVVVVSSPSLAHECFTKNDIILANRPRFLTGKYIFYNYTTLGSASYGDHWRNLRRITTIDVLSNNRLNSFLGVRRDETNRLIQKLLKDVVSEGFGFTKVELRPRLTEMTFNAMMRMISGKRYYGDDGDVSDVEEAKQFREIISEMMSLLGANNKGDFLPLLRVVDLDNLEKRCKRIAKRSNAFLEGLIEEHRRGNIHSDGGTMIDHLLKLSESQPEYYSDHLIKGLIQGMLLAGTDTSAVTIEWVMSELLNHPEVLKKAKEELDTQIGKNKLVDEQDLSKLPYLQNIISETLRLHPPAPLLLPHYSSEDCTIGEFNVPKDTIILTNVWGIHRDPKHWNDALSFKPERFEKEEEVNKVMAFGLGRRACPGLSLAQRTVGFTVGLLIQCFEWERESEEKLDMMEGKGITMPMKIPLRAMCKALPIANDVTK
Experimental: as §1, §2, §3, §4, §5

[3] = biological target: T3, MtCYP81E8 (Medicago truncatula, UniProt Q6WNQ8); assay: Hydroxylase assay with yeast microsomes expressing recombinant MtCYP81E8; format: biochemical; conditions: standard assay conditions, or at different pH values and NADPH concentrations
T3 construct: The full length CYP81E8 cDNA was directly excised from its original clone; made in house; host or cells: Saccharomyces cerevisiae WAT11, vector YeDP60; microsomal fraction
T3 sequence (Q6WNQ8 1-499): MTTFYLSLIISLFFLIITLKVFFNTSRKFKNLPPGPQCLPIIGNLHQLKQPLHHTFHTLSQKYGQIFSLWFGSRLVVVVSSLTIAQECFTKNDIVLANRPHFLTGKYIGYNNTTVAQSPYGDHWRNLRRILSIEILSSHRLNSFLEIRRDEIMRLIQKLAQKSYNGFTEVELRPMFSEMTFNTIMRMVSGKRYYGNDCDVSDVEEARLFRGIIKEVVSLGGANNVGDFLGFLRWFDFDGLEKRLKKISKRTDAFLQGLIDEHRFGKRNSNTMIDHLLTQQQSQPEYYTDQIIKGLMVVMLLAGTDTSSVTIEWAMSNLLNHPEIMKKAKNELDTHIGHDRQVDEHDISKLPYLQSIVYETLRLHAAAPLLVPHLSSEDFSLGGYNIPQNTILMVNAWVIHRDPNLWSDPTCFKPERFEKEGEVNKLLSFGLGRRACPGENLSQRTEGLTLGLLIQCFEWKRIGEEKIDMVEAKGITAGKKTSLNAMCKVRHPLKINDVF
Experimental: as §1, §2, §3, §4

[4] = substrate: COc1ccc(-c2coc3cc(O)ccc3c2=O)cc1; assay: Hydroxylase assay with yeast microsomes expressing recombinant MtCYP81E7 (I2′H); format: biochemical, Medicago truncatula; conditions: other: 2 mM NADPH and pH 8.0, 25.0 °C
Experimental: (§6) After incubation at ˜80 rpm for 30 to 40 min, spheroplasts were centrifuged down for 5 min, washed twice with Zymolyase buffer B, and then twice with phosphate buffer A (0.1 M potassium phosphate pH 8.0, 1 M sorbitol, 14 mM 2-mercaptoethanol). The spheroplasts were re-suspended in a minimum vol of phosphate buffer B (0.1 M potassium phosphate pH 8.0, 0.4 M sucrose, 14 mM β-mercaptoethanol, 1 mM PMSF and 1× protein inhibitor cocktail (Roche Diagnostics GmbH, Mannheim, German), and 1 vol of glass beads (diameter at 0.45/0.50 mm) was added. Samples were vigorously vortexed at 4° C., with the quality of cell disruption checked under the microscope. The supernatant was then removed and the beads washed four times with phosphate buffer B. Supernatants were pooled and centrifuged at 12,000 g for 10 min; the resulting supernatant was then ultracentrifuged at 140,000 g for 90 min. The supernatant was discarded and the pellet washed briefly with phosphate buffer C (0.1 M potassium phosphate, pH 8.0, 0.4 M sucrose, 0.5 mM glutathione), and re-suspended in the same buffer plus 5% glycerol at about 12 mg total protein/ml. Protein was quantified using a Bio-Rad protein assay kit (Bio-Rad, Hercules, Calif.).
(§7) Hydroxylase assays were performed in phosphate buffer C in a total volume of 150 μl containing 2 mM NADPH, 40 μM isoflavone substrate and 40˜70 pmol P450 protein. Reactions were incubated at 25° C. for 1.5 h (over which period the reactions were linear) with gentle shaking and stopped by extracting twice with 500 μl of ethyl acetate. The extracts were combined, evaporated under N2, re-suspended in 60 μl of methanol, and analyzed by HPLC or LC-MS. All assays to determine enzyme specificity were carried out in duplicate. For kinetic studies, the isoflavone concentration was varied at a fixed concentration of NADPH (2 mM), and kinetic constants calculated from initial rate data using Lineweaver-Burke double reciprocal plots. All kinetic analyses were carried out in triplicate.
(§8) Product identification was firstly based on comparisons of chromatographic behavior and UV spectra with authentic standards. Identifications were then confirmed by HPLC-MS, using a HP 1100 liquid chromatograph coupled to a Bruker Esquire Ion-Trap mass spectrometer equipped with an electrospray source. HPLC separation was achieved using a J. T. Baker Bakerbond reverse-phase column (C18, 5 μm, 4.6 mm×250 mm, J. T. Baker, Philipsberg, N.J.). […] Mass spectra were recorded over a range of 50-2200 m/z.

[5] = substrate: COc1ccc(-c2coc3cc(O)cc(O)c3c2=O)cc1; assay: as above; format: biochemical, Medicago truncatula; conditions: other: 2 mM NADPH and pH 8.0, 25.0 °C
Experimental: as §6, §7, §8

## NADPH
[1]; read-out: apparent KM value of MtCYP81E7 for NADPH
  Km: ~170 nM

## O=c1c(-c2ccc(O)cc2)coc2cc(O)ccc12 [Daidzein, 7,4′-dihydroxyisoflavone]
[2]
  Activity of MtI3′H with substrate (in words): low activity
[2]; isoflavone 40 μM
  Substrate specificity of I3′H (MtCYP81E9), relative activity: 1.73%^a
[1]
  Activity of MtI2′H with substrate (in words): weak activity
[1]; isoflavone 40 μM
  Substrate specificity of I2′H (MtCYP81E7), relative activity: 18.6%^a

## COc1ccc(-c2coc3cc(O)ccc3c2=O)cc1 [Formononetin, 7-hydroxy, 4′-methoxyisoflavone]
[2]; isoflavone 40 μM
  Substrate specificity of I3′H (MtCYP81E9), relative activity: 50%
[1]; isoflavone 40 μM
  Substrate specificity of I2′H (MtCYP81E7), relative activity: 37.2%

## O=c1c(-c2ccc3c(c2)OCO3)coc2cc(O)ccc12 [Pseudobaptigenin]
[2]
  Activity of MtI3′H with substrate (in words): low activity
[2]; isoflavone 40 μM
  Substrate specificity of I3′H (MtCYP81E9), relative activity: 7.6%^a
[1]
  Activity of MtI2′H with substrate (in words): active
[1]; isoflavone 40 μM
  Substrate specificity of I2′H (MtCYP81E7), relative activity: 35%

## O=c1cc(-c2ccc(O)c(O)c2)oc2cc(O)cc(O)c12 [luteolin]
[3]
  Activity of recombinant MtCYP81E8 with substrate (in words): no activity

## O=c1c(-c2ccc(O)cc2)coc2cc(O)cc(O)c12 [Genistein, 5,7,4′-trihydroxyisoflavone]
[2]; isoflavone 40 μM
  Substrate specificity of I3′H (MtCYP81E9), relative activity: 19.13%^a
[1]
  Activity of MtI2′H with substrate (in words): weak activity
[1]; isoflavone 40 μM
  Substrate specificity of I2′H (MtCYP81E7), relative activity: 10.2%^a

## COc1ccc(-c2coc3cc(O)ccc3c2=O)cc1O [3′-Hydroxyformononetin]
[1]
  Activity of MtI2′H with substrate (in words): negligible activity
[1]; isoflavone 40 μM
  Substrate specificity of I2′H (MtCYP81E7), relative activity: 4.7%

## COc1cc(O)c2c(=O)c(-c3ccc(O)cc3)coc2c1 [Prunetin]
[2]
  Activity of MtI3′H with substrate (in words): Neither enzyme hydroxylated
[1]
  Activity of MtI2′H with substrate (in words): Neither enzyme hydroxylated

## COc1ccc(-c2coc3cc(O)ccc3c2=O)c(O)c1 [2′-Hydroxyformononetin]
[2]
  Activity of MtI3′H with substrate (in words): more active
[2]; isoflavone 40 μM
  Substrate specificity of I3′H (MtCYP81E9), relative activity: 39.34%^b
[1]
  Activity of MtI2′H with substrate (in words): negligible activity
[1]; isoflavone 40 μM
  Substrate specificity of I2′H (MtCYP81E7), relative activity: 9.1%^a

## O=C1C[C@@H](c2ccc(O)cc2)Oc2cc(O)cc(O)c21 [narigenin]
[3]
  Activity of recombinant MtCYP81E8 with substrate (in words): no activity

## COc1ccc2c(=O)c(-c3ccc(O)cc3)coc2c1 [Isoformononetin]
[2]
  Activity of MtI3′H with substrate (in words): Neither enzyme hydroxylated
[1]
  Activity of MtI2′H with substrate (in words): Neither enzyme hydroxylated

## O=c1cc(-c2ccc(O)cc2)oc2cc(O)cc(O)c12 [apigenin]
[3]
  Activity of recombinant MtCYP81E8 with substrate (in words): no activity

## O=C1C[C@@H](c2ccc(O)cc2)Oc2cc(O)ccc21 [liquiritigenin]
[3]
  Activity of recombinant MtCYP81E8 with substrate (in words): no activity

## COc1ccc(-c2coc3cc(O)cc(O)c3c2=O)cc1 [Biochanin A]
[2]; isoflavone 40 μM, 2 mM NADPH
  Activity corresponding to 100%, 3′-hydroxylation: 98.56 pmol pmol^−1 protein h^−1
[2]; isoflavone 40 μM
  Substrate specificity of I3′H (MtCYP81E9), relative activity: 100%
[1]; isoflavone 40 μM, 2 mM NADPH
  Activity corresponding to 100%, 2′-hydroxylation: 53.8 pmol/pmol protein/h
[1]; isoflavone 40 μM
  Substrate specificity of I2′H (MtCYP81E7), relative activity: 100%

B1: I2′H (MtCYP81E7) (Medicago truncatula) (protein)
chain: T1 sequence (Q6WNR0 1-498)
notes: The open reading frame of MtCYP81E7 was amplified with forward primer; made in house; host or cells: Saccharomyces cerevisiae WAT11, vector YeDP60; microsomal fraction
[4]
  Km: 67 µM
  kcat: 0.015 s⁻¹
[5]
  Km: 51 µM
  kcat: 0.033 s⁻¹
